Measurements published in patent publication US7374870B2, “Systems and methods for removing viral agents from blood” (Fenwal, Inc., priority 1996, dated 2008).

Key:
[1] = system: viruses; assay: Viral inactivation by the photoreduction byproduct; conditions: byproduct formed by exposing methylene blue to visible ambient light
[2] = system: encephalomyocarditis virus (EMC); conditions: cited from earlier work

Question: For `CN(C)c1ccc2c(c1)Sc1cc(N(C)C)ccc1N2` [leucomethylene blue], which “effectiveness in inactivating viruses” value [1] is on record?
Answer: not effective in inactivating viruses

Question: For `CN(C)c1ccc2nc3ccc(=[N+](C)C)cc-3sc2c1` [methylene blue], which “virucidal action on non-enveloped EMC” value [2] is on record?
Answer: demonstrated a resistance to the virucidal action
